Data as given in ChEMBL document CHEMBL1201862, “PubChem BioAssay data set” (2004).
Active and inactive are the calls of the source.

Columns and labels:
[1] = target: T1, Short transient receptor potential channel 4 (Mus musculus, UniProt Q9QUQ5); experiment: mouse TRPC4 channel inhibitors, dose response, cell-based, HEK293 TRPC4/mu-opioid, Fluo-4 calcium (AID 434942); assay type: functional;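 further: potency of inhibitors blocking the TRPC4 calcium response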
T1 sequence (Q9QUQ5 whole entry): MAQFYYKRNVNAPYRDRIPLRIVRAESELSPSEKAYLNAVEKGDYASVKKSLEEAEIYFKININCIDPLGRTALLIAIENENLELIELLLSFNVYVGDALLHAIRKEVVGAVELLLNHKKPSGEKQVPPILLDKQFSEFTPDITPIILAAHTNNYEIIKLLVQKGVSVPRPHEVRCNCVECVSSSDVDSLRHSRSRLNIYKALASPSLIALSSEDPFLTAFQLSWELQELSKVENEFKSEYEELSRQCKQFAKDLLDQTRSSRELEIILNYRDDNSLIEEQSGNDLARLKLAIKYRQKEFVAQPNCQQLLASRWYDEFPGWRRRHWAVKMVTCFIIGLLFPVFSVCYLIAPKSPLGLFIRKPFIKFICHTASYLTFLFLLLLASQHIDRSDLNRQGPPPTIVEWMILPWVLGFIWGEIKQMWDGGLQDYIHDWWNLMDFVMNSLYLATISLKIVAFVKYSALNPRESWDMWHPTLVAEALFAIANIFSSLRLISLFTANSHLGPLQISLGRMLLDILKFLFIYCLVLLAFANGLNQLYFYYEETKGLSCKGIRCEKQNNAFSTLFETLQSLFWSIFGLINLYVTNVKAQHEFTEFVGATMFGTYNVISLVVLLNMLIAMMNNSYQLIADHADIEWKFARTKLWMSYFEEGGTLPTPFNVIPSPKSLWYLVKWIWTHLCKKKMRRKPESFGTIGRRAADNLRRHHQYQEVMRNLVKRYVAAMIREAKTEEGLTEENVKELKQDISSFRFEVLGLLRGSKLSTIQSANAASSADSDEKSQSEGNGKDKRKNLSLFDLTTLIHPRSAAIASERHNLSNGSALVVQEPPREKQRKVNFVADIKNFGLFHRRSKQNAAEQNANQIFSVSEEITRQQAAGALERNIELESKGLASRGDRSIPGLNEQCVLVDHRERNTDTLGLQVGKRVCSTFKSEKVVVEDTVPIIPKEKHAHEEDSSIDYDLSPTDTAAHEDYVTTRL

[2] = target: Nonstructural protein 1 (Influenza A virus, UniProt Q194T2); assay type: functional, Influenza A virus (A/California/07/2009(H1N1))
Sequence of Nonstructural protein 1 (Q194T2 whole entry): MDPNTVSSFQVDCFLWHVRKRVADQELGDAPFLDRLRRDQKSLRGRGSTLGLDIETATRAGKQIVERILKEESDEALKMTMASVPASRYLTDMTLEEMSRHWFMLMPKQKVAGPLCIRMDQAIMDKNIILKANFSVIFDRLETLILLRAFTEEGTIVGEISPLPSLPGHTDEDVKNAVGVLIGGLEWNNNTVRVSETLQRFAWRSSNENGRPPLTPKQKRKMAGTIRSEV

[3] = Luminescence Cell-Based Dose Confirmation HTS to Identify Inhibitors of Platelet Dense Granule Release. [Related pubchem assays: 1663 (Primary HTS), 1678 (Summary of Project)]; assay type: functional
[4] = cytotoxicity toward DRD oncogenic fibroblasts, dose response, cell-based, non-viral oncogenic, luminescence (AID 1934); assay type: functional; conditions: Homo sapiens
[5] = target: Luciferin 4-monooxygenase (Photinus pyralis, UniProt P08659); experiment: firefly luciferase enzyme inhibitors, dose response, biochemical, luminescence (AID 1891)
Sequence of Luciferin 4-monooxygenase (P08659 whole entry): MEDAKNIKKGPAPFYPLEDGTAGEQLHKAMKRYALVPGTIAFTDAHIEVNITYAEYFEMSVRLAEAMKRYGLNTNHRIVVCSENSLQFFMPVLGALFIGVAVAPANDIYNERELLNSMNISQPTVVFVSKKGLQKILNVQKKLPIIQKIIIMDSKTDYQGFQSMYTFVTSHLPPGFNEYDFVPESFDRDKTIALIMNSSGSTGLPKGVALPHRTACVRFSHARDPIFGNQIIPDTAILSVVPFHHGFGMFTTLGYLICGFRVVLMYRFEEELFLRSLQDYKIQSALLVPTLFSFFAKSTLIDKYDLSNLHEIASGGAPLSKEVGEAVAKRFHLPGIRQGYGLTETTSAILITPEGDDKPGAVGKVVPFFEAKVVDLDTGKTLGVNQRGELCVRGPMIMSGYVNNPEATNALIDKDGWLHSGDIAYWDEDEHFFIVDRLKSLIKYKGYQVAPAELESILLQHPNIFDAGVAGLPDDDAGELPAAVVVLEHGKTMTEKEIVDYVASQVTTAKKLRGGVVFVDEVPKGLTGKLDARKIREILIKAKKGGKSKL

[6] = test system: BJ; experiment: cells; assay type: functional, cell-based; conditions: Homo sapiens
[7] = test system: BJ; experiment: cytotoxicity toward BJ-TERT fibroblasts, dose response, cell-based, RAS-independent, luminescence (AID 1933); assay type: functional; conditions: Homo sapiens
[8] = test system: BJ; experiment: cytotoxicity toward BJ-TERT-LT-ST fibroblasts, dose response, cell-based, RAS-independent, luminescence (AID 1935); assay type: functional; conditions: Homo sapiens;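 further: BJ fibroblasts immortalized with TERT plus LT and ST oncogenes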
[9] = A cytotoxicity screen of small molecule inhibitors of the PhoP region in Salmonella typhi identified in the primary screen. [Related pubchem assays: 1850, 1864, 1985 ]; assay type: functional
[10] = target: T2, Protein RecA (Mycobacterium tuberculosis, UniProt P9WHJ3); experiment: Fluorescence Cell-Free Homogeneous Dose Retest to Identify Inhibitors of RecA-Intein Splicing Activity. [Related pubchem assays (depositor defined):AID2097, AID2223, AID489010, AID492950]; assay type: functional
T2 sequence (P9WHJ3 whole entry): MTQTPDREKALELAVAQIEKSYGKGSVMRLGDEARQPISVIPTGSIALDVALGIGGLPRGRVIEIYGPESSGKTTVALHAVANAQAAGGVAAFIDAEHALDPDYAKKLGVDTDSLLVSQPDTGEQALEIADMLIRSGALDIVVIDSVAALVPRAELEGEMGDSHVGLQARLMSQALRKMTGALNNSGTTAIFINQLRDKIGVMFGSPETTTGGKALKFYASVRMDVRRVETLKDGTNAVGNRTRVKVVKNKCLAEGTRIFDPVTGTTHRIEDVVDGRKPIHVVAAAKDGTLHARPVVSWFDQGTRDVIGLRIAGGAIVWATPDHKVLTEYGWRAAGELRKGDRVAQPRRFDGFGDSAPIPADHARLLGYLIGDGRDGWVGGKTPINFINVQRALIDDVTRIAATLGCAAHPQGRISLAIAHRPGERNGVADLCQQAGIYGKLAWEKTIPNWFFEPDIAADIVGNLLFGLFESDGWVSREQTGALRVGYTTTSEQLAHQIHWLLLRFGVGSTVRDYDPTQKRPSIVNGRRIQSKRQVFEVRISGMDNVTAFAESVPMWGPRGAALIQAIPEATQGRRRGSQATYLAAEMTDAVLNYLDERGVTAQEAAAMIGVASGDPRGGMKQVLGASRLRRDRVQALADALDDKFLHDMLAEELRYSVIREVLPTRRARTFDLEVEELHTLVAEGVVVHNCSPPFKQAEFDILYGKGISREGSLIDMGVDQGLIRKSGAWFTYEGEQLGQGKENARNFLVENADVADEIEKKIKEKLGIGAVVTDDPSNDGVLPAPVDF

[11] = target: T3, Replicative DNA helicase DnaB (Mycobacterium tuberculosis, UniProt P9WMR3); experiment: DnaB intein splicing inhibitors, dose response, biochemical, cell-free fluorescence (AID 449749); assay type: functional
T3 sequence (P9WMR3 whole entry): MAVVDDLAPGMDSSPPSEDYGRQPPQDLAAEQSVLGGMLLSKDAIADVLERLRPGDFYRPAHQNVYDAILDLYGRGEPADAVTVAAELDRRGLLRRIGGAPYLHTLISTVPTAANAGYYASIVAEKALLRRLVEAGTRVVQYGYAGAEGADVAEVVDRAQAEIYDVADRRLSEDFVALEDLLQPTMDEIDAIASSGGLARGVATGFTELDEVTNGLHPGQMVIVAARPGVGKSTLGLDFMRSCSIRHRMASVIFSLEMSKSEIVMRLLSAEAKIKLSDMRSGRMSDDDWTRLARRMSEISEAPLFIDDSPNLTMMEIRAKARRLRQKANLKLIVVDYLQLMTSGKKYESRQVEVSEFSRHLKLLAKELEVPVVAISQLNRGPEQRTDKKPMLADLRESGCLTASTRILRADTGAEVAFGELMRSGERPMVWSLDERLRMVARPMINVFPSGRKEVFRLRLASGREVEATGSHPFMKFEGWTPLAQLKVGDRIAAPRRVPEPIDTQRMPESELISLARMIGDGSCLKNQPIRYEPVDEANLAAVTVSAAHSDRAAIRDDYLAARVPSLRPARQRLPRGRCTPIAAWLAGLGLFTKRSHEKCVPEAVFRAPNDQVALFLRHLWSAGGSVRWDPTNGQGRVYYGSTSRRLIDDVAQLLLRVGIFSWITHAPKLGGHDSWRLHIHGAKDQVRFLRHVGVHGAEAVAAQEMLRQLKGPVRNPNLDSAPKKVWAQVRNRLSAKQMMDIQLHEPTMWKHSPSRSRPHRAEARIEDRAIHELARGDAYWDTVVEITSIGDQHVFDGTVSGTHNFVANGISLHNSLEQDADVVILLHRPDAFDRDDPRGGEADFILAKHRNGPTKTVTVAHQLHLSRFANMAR

[12] = target: Glyceraldehyde-3-phosphate dehydrogenase (Homo sapiens, UniProt P04406)
Sequence of Glyceraldehyde-3-phosphate dehydrogenase (P04406 whole entry): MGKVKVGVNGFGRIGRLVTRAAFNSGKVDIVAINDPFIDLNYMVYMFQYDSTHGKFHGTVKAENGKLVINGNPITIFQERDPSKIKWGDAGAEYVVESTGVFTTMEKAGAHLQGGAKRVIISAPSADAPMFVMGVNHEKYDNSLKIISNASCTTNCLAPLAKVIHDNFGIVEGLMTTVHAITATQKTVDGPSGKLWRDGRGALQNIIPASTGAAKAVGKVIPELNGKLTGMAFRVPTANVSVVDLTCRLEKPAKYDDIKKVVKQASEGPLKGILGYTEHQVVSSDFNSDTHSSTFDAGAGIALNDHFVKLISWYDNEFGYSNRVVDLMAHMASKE

[13] = Luminescence Cell-Based Dose Response HTS to Identify Inhibitors of 5'UTR Stem-Loop Driven Prion Protein mRNA Translation in H4 Neuroglioblastoma Cells. [Related pubchem assays: 1827 (Project Summary), 1813 (Primary HTS)]; assay type: functional
[14] = inhibitors of SNCA 5'UTR-driven reporter translation, confirmation, H4 neuroglioma cells, luminescence (AID 1988); assay type: functional, cell-based
[15] = inhibitors of firefly luciferase expression or activity, dose response, H4 neuroglioma cells, luminescence (AID 1990); assay type: functional, cell-based
[16] = target: T4, Microphthalmia-associated transcription factor (Homo sapiens, UniProt O75030); experiment: TRPM1 promoter luciferase signal decrease, dose response, MITF inhibitor project, cell-based, SK-MEL-5, cherry-picked, set 3 (AID 493073); assay type: functional
T4 sequence (O75030 whole entry): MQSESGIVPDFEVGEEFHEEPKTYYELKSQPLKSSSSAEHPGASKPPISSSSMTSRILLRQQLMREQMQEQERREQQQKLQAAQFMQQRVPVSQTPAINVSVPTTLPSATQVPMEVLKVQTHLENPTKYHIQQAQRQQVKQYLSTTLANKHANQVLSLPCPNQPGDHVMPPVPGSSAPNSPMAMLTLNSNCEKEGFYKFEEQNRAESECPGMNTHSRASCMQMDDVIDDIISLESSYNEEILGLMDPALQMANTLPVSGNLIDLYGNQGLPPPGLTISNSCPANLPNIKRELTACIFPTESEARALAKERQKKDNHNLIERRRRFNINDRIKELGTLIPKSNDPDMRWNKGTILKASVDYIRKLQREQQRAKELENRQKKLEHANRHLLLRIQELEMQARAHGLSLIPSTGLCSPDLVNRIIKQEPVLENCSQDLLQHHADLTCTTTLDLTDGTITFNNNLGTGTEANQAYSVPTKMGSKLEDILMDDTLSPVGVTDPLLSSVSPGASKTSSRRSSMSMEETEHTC

## CN1CCN(Cc2c[nH]nc2-c2ccc(F)cc2F)[C@@H](c2ccccc2)C1
[1]
  EC50: 4.22 µM (active)

## CCC1CCCCN1c1nc(-c2cccc(OC)c2O)nc2ccccc12 (stereo unspecified)
[2]
  IC50: > 100 µM (active)

## OCCNc1nc2ccccc2n1CCN1CCCCC1
[1]
  EC50: 3.35 µM (active)

## Cc1ccsc1C(=O)Nc1ccc(OCc2ccccc2)cc1
[3]
  EC50: 5.83 µM (active)
[4]
  EC50: > 150 µM (inconclusive)
[5]
  EC50: 1.7 µM (active)
[6]
  EC50: 34.4 µM (active)
[7]
  EC50: > 150 µM (not active)
[8]
  EC50: > 150 µM (not active)

## O=C1C(=C(c2ccccc2)c2ccccc2)Nc2ccccc21
[2]
  IC50: 30.3 µM (active)

## Cc1ccc(SCc2n[nH]c3c2C(c2cccnc2)C(C#N)=C(N)O3)cc1 (stereo unspecified)
[9]
  EC50: > 50 µM (active)

## CC1CC1C(=O)Nc1nc2ccc(S(C)(=O)=O)cc2s1 (stereo unspecified)
[9]
  EC50: > 50 µM (active)

## O=C(CCl)N(Cc1cccc([N+](=O)[O-])c1)c1cccc(Cl)c1
[4]
  EC50: 1.22 µM (active)
[6]
  EC50: 1.41 µM (inconclusive)
[7]
  EC50: 0.25 µM (active)
[8]
  EC50: 4.87 µM (inconclusive)
[10]
  EC50: 0.512 µM (active)
[11]
  AC50: 5.28 µM (active)

## COc1cccc(N2C(=O)C(Cl)=C(N3CCN(C)CC3)C2=O)c1
[12]
  IC50: > 50 µM (inconclusive)

## COC(=O)c1ccc(Nc2cc(C)nc3ccccc23)cc1
[13]
  EC50: 16.4 µM (active)
[14]
  EC50: 7.97 µM (active)
[15]
  EC50: 11.6 µM (active)
[1]
  EC50: 3.76 µM (active)

## Cc1noc(C)c1S(=O)(=O)N1CCC(Cc2ccccc2)CC1
[9]
  EC50: > 50 µM (active)

## O=C1C(Cl)=C(N2CCOCC2)C(=O)N1c1ccc(C(F)(F)F)cc1
[12]
  IC50: > 50 µM (inconclusive)

## Cc1ccc(N2C(=O)C(Cl)=C(N3CCN(C)CC3)C2=O)cc1
[12]
  IC50: > 50 µM (inconclusive)

## Fc1cccc(Cl)c1CSc1ccc(-c2ccco2)nn1
[9]
  EC50: > 50 µM (active)

## CCCCCN1C(=O)/C(=C/c2c(N3CCc4ccccc4C3)nc3ccccn3c2=O)SC1=S
[9]
  EC50: > 50 µM (active)

## c1csc(CNc2nc(-c3cccs3)nc3ccccc23)c1
[1]
  EC50: 4.73 µM (active)

## O=[N+]([O-])c1ccc(/C=N/N=C/c2ccc([N+](=O)[O-])o2)o1
[16]
  AC50: 9.36 µM (active)

## O=[N+]([O-])c1cccc(/C=N/c2cc3c(cc2Br)OCCO3)c1
[2]
  IC50: > 100 µM (active)
